Test results taken from patent US12076328B2 (priority 2020, dated 2024).

What was measured:
[1] = Oral pharmacokinetic analysis in rats; assay type: in vivo; settings: niclosamide dose 10 mg/kg by oral gavage, n = 5
Description: The oral pharmacokinetic analysis was conducted at Pharmaron (Ningbo, China). The study protocol was approved and conducted in accordance with the Institutional Animal Care and Use Committee (IACUC) guidelines at Pharmaron. (IACUC; Protocol Number AUP-PK-R-06012019). […] The powders were blended by mortar and pestle and loaded into the capsules using the capsule filling funnel for size 9 (Torpac, Fairfield, NJ, USA). […] Two mobile phases were used. The mobile phase A was a 0.1% formic acid aqueous solution, and the mobile phase B was a mixture of 5% water and 95% acetonitrile (0.1% formic acid). Then, 50 μL of plasma with 5 μL of methanol were added to 200 μL of methanol containing an internal standard mixture for protein precipitation. The samples were vortexed for 30 s and underwent centrifugation for 15 min at 4000 rpm and […]. Thereafter, the supernatant was diluted three times with water, and 2 μL were injected into the HPLC. Furthermore, the resultant particles were subjected to dissolution and the resultant supernatants after centrifugation were analyzed.

SARS-CoV-2 = assay type: cell-based; settings: assumed that the wet tissue has a density
COVID-19 = settings: Vero E6 cells; cited from earlier work
SARS-CoV = settings: Vero cells infected by SARS-CoV (2002 pandemic); cited from earlier work
[2] = Pharmacokinetic evaluation of milled niclosamide extrudate in CD-1 mice; assay type: in vivo; settings: 500 mg/kg suspended in 0.5% Methocel A4M

## O=C(Nc1ccc([N+](=O)[O-])cc1Cl)c1cc(Cl)ccc1O
[1]
  AUCInf: 188 ng·h/mL
  AUClast: 168 ng·h/mL
  AUC—% Extrap_obs: 8.4%
  Cmax: 48.3 ng/mL
  MRTInf_obs: 3.56 h
  T1/2: 1.00 h
  Tmax: 3.60 h

## O=C(Nc1ccc([N+](=O)[O-])cc1Cl)c1cc(Cl)ccc1O [niclosamide, 5-Chloro-N-(2-chloro-4-nitrophenyl)salicylamide]
SARS-CoV-2
  Estimated niclosamide IC50 for SARS-CoV-2: 0.09156 μg/g of wet tissue

## CCN(CC)CCCC(C)Nc1ccnc2cc(Cl)ccc12 (stereo not shown) [chloroquine]
COVID-19
  IC50: 1130 nM
SARS-CoV
  IC50: 4400 nM

## O=C(Nc1ccc([N+](=O)[O-])cc1Cl)c1cc(Cl)ccc1O [Crystalline Nic]
[2]
  AUC0-last: 1454.6 ng·h/mL
  Cmax: 661.7 ng/mL
  Tmax: 0.5 h
